These compounds were tested against T1, collagenase (Homo sapiens, UniProt P03956) (assay: in vitro collagenase inhibiting activity (Test A)). Conditions: collagenase from culture of human synovial fibroblasts, trypsin-activated; substrate 14C-acetylated collagen type I from rat tail tendons; microtitre plate assay.
T1 construct: endogenous in cells; host or cells: culture of human synovial fibroblasts (conditioned medium)
T1 sequence (P03956 100-469): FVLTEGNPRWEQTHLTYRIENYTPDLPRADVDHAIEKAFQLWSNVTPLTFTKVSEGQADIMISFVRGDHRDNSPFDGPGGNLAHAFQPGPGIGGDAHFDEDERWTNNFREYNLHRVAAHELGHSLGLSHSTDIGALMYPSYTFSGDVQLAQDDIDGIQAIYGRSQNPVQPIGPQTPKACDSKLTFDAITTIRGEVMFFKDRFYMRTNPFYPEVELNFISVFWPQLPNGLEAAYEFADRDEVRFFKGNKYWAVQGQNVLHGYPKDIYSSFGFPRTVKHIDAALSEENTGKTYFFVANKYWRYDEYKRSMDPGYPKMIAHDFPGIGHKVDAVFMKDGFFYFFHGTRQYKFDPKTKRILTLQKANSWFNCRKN
Assay type: biochemical
Procedure: USA (1976), 73 945, following activation of the pro-collagenase in the conditioned medium by treatment with trypsin. Collagenase activity was measured using ^14 C-acetylated collagen type I from rat tail tendons as the substrate and employing the microtitre plate assay method of Johnson-Wint, B, Anal. Biochem. (1980), 104, 175. The IC50 is that concentration of a test compound in the enzyme digestion which reduces substrate cleavage and solubilization to 50% of that achieved by the enzyme alone.

Compared with CNC(=O)[C@@H](NC(=O)C(CC(=O)NO)CC1CCC1)C(C)(C)C (single isomer, unassigned) [Example 1, N2-[3-cyclobutyl-2(R or S)-[(hydroxycarbamoyl)-methyl]propionyl]-N1,3-dimethyl-L-valinamide], CNC(=O)[C@@H](NC(=O)C(CC(=O)NO)CC1CC1)C(C)(C)C (single isomer, unassigned) [Example 2, N2-[3-cyclopropyl-2(R or S)-[(hydroxycarbamoyl)-methyl]propionyl]-N1,3-dimethyl-L-valinamide] is 3.5-fold higher in IC50: 2 nM for the first, 7 nM for the second. The first is the more potent here.

First: CNC(=O)[C@@H](NC(=O)C(CC(=O)NO)CC1CCCC1)C(C)(C)C (single isomer, unassigned) [Example 3, N2-[3-cyclopentyl-2(R or S)-[(hydroxycarbamoyl)methyl]propionyl]-N1-3-dimethyl-L-valinamide]
Second: CNC(=O)[C@@H](NC(=O)[C@H](CC1CCC1)C(CN1C(=O)N(C)C(C)(C)C1=O)C(=O)NO)C(C)(C)C (single isomer, unassigned) [Example 5, N2-[3-cyclobutyl-2(R)-[1(R or S)-(hydroxycarbamoyl)-2-(3,4,4-trimethyl-2,5-dioxo-1-imidazolidinyl)ethyl]propionyl]-N1,3-dimethyl-L-valinamide]
The IC50 of the first is 5-fold higher: 5 nM for the first, 1 nM for the second.

Work on CNC(=O)[C@@H](NC(=O)[C@H](CC1CC1)C(CN1C(=O)N(C)C(C)(C)C1=O)C(=O)NO)C(C)(C)C (single isomer, unassigned) [Example 4, N2-[3-cyclopropyl-2(R)-[1(R or S)-(hydroxycarbamoyl)-2-(3,4,4-trimethyl-2,5-dioxo-1-imidazolidinyl)ethyl]propionyl]-N1,3-dimethyl-L-valinamide] yielded an IC50 of 1 nM.

— US6066662A, “Hydroxylamine derivatives and their use as metalloproteinase inhibiting agents” (Hoffmann-La Roche Inc., priority 1994, dated 2000)
